In patent US20250177378A1, “TREATMENT OF DEPRESSION” (priority 2022, published 2025):
Where “and” joins values, the source holds several entries; their conditions need not be identical. Equal entries are not always repeated.

Legend:
[1] = test system: individuals with MDD; details: switch strategy; cited from earlier work
[2] = Pharmacokinetics of dextromethorphan, bupropion and metabolites after administration of the subject combination
[3] = test system: patients with major depressive disorder; assay: Phase 2 randomized double-blind trial, dextromethorphan-bupropion (45 mg/105 mg tablet) vs bupropion (105 mg tablet), twice daily, 6 weeks (NCT03595579)
Description: This randomized, double-blind, multicenter, parallel-group trial evaluated dextromethorphan-bupropion versus the active comparator sustained-release bupropion in patients 18-65 years old with a diagnosis of major depressive disorder of moderate or greater severity. Patients were randomly assigned to receive either dextromethorphan-bupropion (45 mg/105 mg tablet) or bupropion (105 mg tablet), once daily for the first 3 days and twice daily thereafter, for a total of 6 weeks.
This was a 6-week randomized, double-blind, active-controlled phase 2 trial conducted at four sites in the United States from May 2018 to December 2018. The trial used bupropion, an approved antidepressant, as the control because it is a component of dextromethorphan-bupropion.
The clinical review utilized only documentation collected by the sites at screening and baseline, including a complete medical history and clinician- and patient-reported outcome measures (described below, under Efficacy Assessments). […] In order to reduce investigator expectation bias and therefore placebo response, sites were blinded to the primary efficacy variable and the presence of an independent assessor. Sites were provided a blinded protocol that presented the trial as a safety study with exploratory efficacy assessments. Detailed discussion of the efficacy analysis was limited to the statistical analysis plan, which was not provided to the sites.
The study evaluated patients 18-65 years of age with a confirmed diagnosis of major depressive disorder and a current major depressive episode of moderate or greater severity. The diagnosis was established using the DSM-5 criteria for major depressive disorder without psychotic features, based on the Structured Clinical Interview for DSM-5, Clinical Trials Version, and the site investigator's rating of a score ≥25 on the Montgomery-Åsberg Depression Rating Scale (MADRS) and a score ≥4 on the Clinical Global Impressions severity scale (CGI-S). Confirmation of the diagnosis of major depressive disorder and a current major depressive episode of moderate or greater severity was performed by a blinded independent assessor based on a clinical review prior to database lock and study unblinding.
The screening period was up to 4 weeks to allow for any needed taper and washout of prior medications.
Participants were randomized in a 1:1 ratio to receive oral treatment with either dextromethorphan-bupropion or sustained-release bupropion. In order to blind site investigators to the independent confirmation of diagnosis, all patients deemed eligible by the site investigators were randomized to receive study medication and were included in the safety population. As prespecified, patients whose diagnosis or severity was not confirmed by the independent assessor were excluded from the efficacy population.
Dextromethorphan-bupropion tablets and bupropion tablets were identical in appearance. The randomization schedule was computer generated using a permuted block algorithm that randomly allocated study drug to randomization numbers.
The double-blind treatment period was 6 weeks. Patients received their assigned study medication, dextromethorphan-bupropion (45 mg/105 mg tablet) or bupropion (105 mg tablet), once daily for the first 3 days and twice daily thereafter. The bupropion dosage in the control arm (210 mg daily) was selected to match the dosage incorporated in dextromethorphan-bupropion, enabling an appropriate comparison. During the treatment period, patients tracked their mood daily by completing a daily visual analogue mood scale. Study visits occurred 1, 2, 3, 4, and 6 weeks after the baseline visit. A safety follow-up visit occurred at week 7, 1 week after the last dose of study medication. There were no formal discontinuation criteria; patients were free to withdraw consent for any reason, and investigators were free to remove a patient from the study for any safety-related reason.

[4] = test system: patients with depression; details: 150 mg/day or 300 mg/day, week 8; cited from earlier work

COc1ccc(C(CN(C)C)C2(O)CCCCC2)cc1 (stereo not drawn) [venlafaxine]
Remission rate, second line treatment following non-remission with an SSRI [1]: about 25%

COc1ccc2c(c1)[C@]13CCCC[C@@H]1[C@H](C2)N(C)CC3 [dextromethorphan]
Increase of mean elimination half-life vs dextromethorphan given without bupropion ([2]; 8 consecutive days of the subject combination, extensive metabolizers): approximately 3 fold
AUC0-12 decrease when administered with food ([2]; subject combination with food): 14%
Cmax change when administered with food ([2]; subject combination with food): unchanged

CC(NC(C)(C)C)C(=O)c1cccc(Cl)c1 (racemic) [bupropion]
Adverse event leading to discontinuation of study drug, patients ([3]; human, in vivo, 6 weeks): 12.5%
Anxiety, patients ([3]; human, in vivo, 6 weeks): 2.1%
Any adverse event, patients ([3]; human, in vivo, 6 weeks): 64.6%
Decreased appetite, patients ([3]; human, in vivo, 6 weeks): 8.3%
Dizziness, patients ([3]; human, in vivo, 6 weeks): 4.2%
Dry mouth, patients ([3]; human, in vivo, 6 weeks): 8.3%
Nausea, patients ([3]; human, in vivo, 6 weeks): 12.5%
Serious adverse event, patients ([3]; human, in vivo, 6 weeks): 0.0%
Severe adverse event, patients ([3]; human, in vivo, 6 weeks): 2.1%
CGI-S score, change from baseline, LS mean ([3]; overall, weeks 1-6): −1.0
MADRS-6 score, change from baseline, LS mean ([3]; overall, weeks 1-6): −6.6 points
QIDS-SR, LS mean change from baseline ([3]; overall, weeks 1-6): −4.8
Patients with positive response on item 1 of the C-SSRS (wish to be dead) ([3]; week 1): five
CGI-S score, change from baseline, LS mean ([3]; week 2): −0.9
Clinical response (≥50% decrease in MADRS score from baseline), patients ([3]; week 2): 27.0%
MADRS total score, change from baseline, LS mean ([3]; week 2): −7.8 points
MADRS-6 score, change from baseline, LS mean ([3]; week 2): −6.0
Remission (MADRS score ≤10), patients ([3]; week 2): 2.7% and 3%
CGI-S score, change from baseline, LS mean ([3]; week 6): −1.5
Clinical response (≥50% decrease in MADRS score from baseline), patients ([3]; week 6): 40.5%
MADRS total score, change from baseline, LS mean ([3]; week 6): −12.1 points
MADRS-6 score, change from baseline, LS mean ([3]; week 6): −8.7
Patients with positive response on item 1 of the C-SSRS (wish to be dead) ([3]; week 6): one
Remission (MADRS score ≤10), patients ([3]; week 6): 16.2%
Remission on the QIDS-SR (score ≤5), patients ([3]; week 6): 21.6%
Reduction from baseline in MADRS total score ([3]; week 6, bupropion arm 210 mg/day): 12 points
Remission rate, second line treatment following non-remission with an SSRI [1]: about 25%
Reduction from baseline in Hamilton Depression Rating Scale (HAM-D) score [4]: approximately 10 points

CN[C@H]1CC[C@@H](c2ccc(Cl)c(Cl)c2)c2ccccc21 [sertraline]
Remission rate, second line treatment following non-remission with an SSRI [1]: about 25%
